This is an account of results in patent US9427437B2, “Hypercholesterolemia and tendinous injuries” (The Trustees of the University of Pennsylvania, priority 2008, dated 2016).

Assay [1] deals with partial tear of the patellar tendon. The assay is described as follows: Patient case: oral atorvastatin for a partial tear of the patellar tendon in a hypercholesterolemic patient. In kind it is in vivo, human. The following applies: orally 20 mg once daily. On the procedure: A person presents with a partial tear of the patellar tendon. Their orthopedist orders a standard lipid panel as part of their blood work. The orthopedist finds that the patient is hypercholesterolemic with a total cholesterol of almost 300 mg/DL. The orthopedist prescribes atorvastatin to be taken orally at a dose of 20 mg once daily.

Assay [2] deals with partial rupture of achilles tendon. The assay can be described thus: Patient case: oral rosuvastatin for a partial rupture of the achilles tendon in a hypercholesterolemic patient. In kind it is in vivo, human. The following applies: orally 10 mg once daily. On the procedure: A diabetic presents with a partial rupture of their achilles tendon. Their orthopedist orders a standard lipid panel as part of their blood work. The orthopedist finds that the patient is hypercholesterolemic with a total cholesterol of 285 mg/DL. The orthopedist prescribes rosuvastatin to be taken orally at a dose of 10 mg once daily.

Take `CC(C)c1c(C(=O)Nc2ccccc2)c(-c2ccccc2)c(-c2ccc(F)cc2)n1CC[C@@H](O)C[C@@H](O)CC(=O)O` [atorvastatin]: the “recovery from partial tear of the patellar tendon” value in assay [1] (hypercholesterolemic person) is listed as “markedly improved”. Also, the cholesterol lowering result in assay [1] (person, total cholesterol almost 300 mg/DL at presentation) is recorded as “lowering their cholesterol to acceptable levels”.
For the compound `CC(C)c1nc(N(C)S(C)(=O)=O)nc(-c2ccc(F)cc2)c1/C=C/[C@@H](O)C[C@@H](O)CC(=O)O` [rosuvastatin], the cholesterol lowering entry in assay [2] (diabetic, total cholesterol 285 mg/DL at presentation) was “lowering their cholesterol to acceptable levels”. The “recovery from partial rupture of achilles tendon” value in assay [2] (hypercholesterolemic diabetic) is given as “markedly improved”.
